Reference: patent US12618095B2, “Medium for Bacillus cereus group detection” (SHIMADZU DIAGNOSTICS CORPORATION, priority 2020, dated 2026)

Legend:
[1] = test system: B. thuringiensis; test: Test Example 9: concentration of amphotericin B; format: cell-based; conditions: NBRC101235
[2] = test system: B. cereus; test: Test Example 9: concentration of amphotericin B

Q: What does the source list for `C[C@@H]1[C@H](O)[C@@H](C)/C=C/C=C/C=C/C=C/C=C/C=C/C=C/[C@H](O[C@@H]2O[C@H](C)[C@@H](O)[C@H](N)[C@@H]2O)C[C@@H]2O[C@](O)(C[C@@H](O)C[C@@H](O)[C@H](O)CC[C@@H](O)C[C@@H](O)CC(=O)O[C@H]1C)C[C@H](O)[C@H]2C(=O)O` [Amphotericin B]?
A: Number of colonies ([1]; Amphotericin B 0.1 mg, 24 hours, 10^2 cfu/mL): 28; Number of colonies ([1]; Amphotericin B 0.1 mg, 24 hours, 10^3 cfu/mL): +; Number of colonies ([1]; Amphotericin B 0.1 mg, 24 hours, 10^4 cfu/mL): +; Number of colonies ([1]; Amphotericin B 0.1 mg, 24 hours, 10^5 cfu/mL): +; Number of colonies ([1]; Amphotericin B 0.1 mg, 44 hours, 10^2 cfu/mL): 28; Number of colonies ([1]; Amphotericin B 0.1 mg, 44 hours, 10^3 cfu/mL): +; Number of colonies ([1]; Amphotericin B 0.1 mg, 44 hours, 10^4 cfu/mL): +; Number of colonies ([1]; Amphotericin B 0.1 mg, 44 hours, 10^5 cfu/mL): +; Number of colonies ([1]; Amphotericin B 1.0 mg, 24 hours, 10^2 cfu/mL): 39; Number of colonies ([1]; Amphotericin B 1.0 mg, 24 hours, 10^3 cfu/mL): +; Number of colonies ([1]; Amphotericin B 1.0 mg, 24 hours, 10^4 cfu/mL): +; Number of colonies ([1]; Amphotericin B 1.0 mg, 24 hours, 10^5 cfu/mL): +; Number of colonies ([1]; Amphotericin B 1.0 mg, 44 hours, 10^2 cfu/mL): 39; Number of colonies ([1]; Amphotericin B 1.0 mg, 44 hours, 10^3 cfu/mL): +; Number of colonies ([1]; Amphotericin B 1.0 mg, 44 hours, 10^4 cfu/mL): +; Number of colonies ([1]; Amphotericin B 1.0 mg, 44 hours, 10^5 cfu/mL): +; Number of colonies ([1]; Amphotericin B 10 mg, 24 hours, 10^2 cfu/mL): 38; Number of colonies ([1]; Amphotericin B 10 mg, 24 hours, 10^3 cfu/mL): +; Number of colonies ([1]; Amphotericin B 10 mg, 24 hours, 10^4 cfu/mL): +; Number of colonies ([1]; Amphotericin B 10 mg, 24 hours, 10^5 cfu/mL): +; Number of colonies ([1]; Amphotericin B 10 mg, 44 hours, 10^2 cfu/mL): 38; Number of colonies ([1]; Amphotericin B 10 mg, 44 hours, 10^3 cfu/mL): +; Number of colonies ([1]; Amphotericin B 10 mg, 44 hours, 10^4 cfu/mL): +; Number of colonies ([1]; Amphotericin B 10 mg, 44 hours, 10^5 cfu/mL): +; Number of colonies ([2]; ATCC11778, Amphotericin B 0.1 mg, 24 hours, 10^2 cfu/mL): 37; Number of colonies ([2]; ATCC11778, Amphotericin B 0.1 mg, 24 hours, 10^3 cfu/mL): +; Number of colonies ([2]; ATCC11778, Amphotericin B 0.1 mg, 24 hours, 10^4 cfu/mL): +; Number of colonies ([2]; ATCC11778, Amphotericin B 0.1 mg, 24 hours, 10^5 cfu/mL): +; Number of colonies ([2]; ATCC11778, Amphotericin B 0.1 mg, 44 hours, 10^2 cfu/mL): 37; Number of colonies ([2]; ATCC11778, Amphotericin B 0.1 mg, 44 hours, 10^3 cfu/mL): +; Number of colonies ([2]; ATCC11778, Amphotericin B 0.1 mg, 44 hours, 10^4 cfu/mL): +; Number of colonies ([2]; ATCC11778, Amphotericin B 0.1 mg, 44 hours, 10^5 cfu/mL): +; Number of colonies ([2]; ATCC11778, Amphotericin B 1.0 mg, 24 hours, 10^2 cfu/mL): 51; Number of colonies ([2]; ATCC11778, Amphotericin B 1.0 mg, 24 hours, 10^3 cfu/mL): +; Number of colonies ([2]; ATCC11778, Amphotericin B 1.0 mg, 24 hours, 10^4 cfu/mL): +; Number of colonies ([2]; ATCC11778, Amphotericin B 1.0 mg, 24 hours, 10^5 cfu/mL): +; Number of colonies ([2]; ATCC11778, Amphotericin B 1.0 mg, 44 hours, 10^2 cfu/mL): 51; Number of colonies ([2]; ATCC11778, Amphotericin B 1.0 mg, 44 hours, 10^3 cfu/mL): +; Number of colonies ([2]; ATCC11778, Amphotericin B 1.0 mg, 44 hours, 10^4 cfu/mL): +; Number of colonies ([2]; ATCC11778, Amphotericin B 1.0 mg, 44 hours, 10^5 cfu/mL): +; Number of colonies ([2]; ATCC11778, Amphotericin B 10 mg, 24 hours, 10^2 cfu/mL): 49; Number of colonies ([2]; ATCC11778, Amphotericin B 10 mg, 24 hours, 10^3 cfu/mL): +; Number of colonies ([2]; ATCC11778, Amphotericin B 10 mg, 24 hours, 10^4 cfu/mL): +; Number of colonies ([2]; ATCC11778, Amphotericin B 10 mg, 24 hours, 10^5 cfu/mL): +; Number of colonies ([2]; ATCC11778, Amphotericin B 10 mg, 44 hours, 10^2 cfu/mL): 49; Number of colonies ([2]; ATCC11778, Amphotericin B 10 mg, 44 hours, 10^3 cfu/mL): +; Number of colonies ([2]; ATCC11778, Amphotericin B 10 mg, 44 hours, 10^4 cfu/mL): +; Number of colonies ([2]; ATCC11778, Amphotericin B 10 mg, 44 hours, 10^5 cfu/mL): +; Number of colonies ([2]; ATCC19637, Amphotericin B 0.1 mg, 24 hours, 10^2 cfu/mL): 36; Number of colonies ([2]; ATCC19637, Amphotericin B 0.1 mg, 24 hours, 10^3 cfu/mL): +; Number of colonies ([2]; ATCC19637, Amphotericin B 0.1 mg, 24 hours, 10^4 cfu/mL): +; Number of colonies ([2]; ATCC19637, Amphotericin B 0.1 mg, 24 hours, 10^5 cfu/mL): +; Number of colonies ([2]; ATCC19637, Amphotericin B 0.1 mg, 44 hours, 10^2 cfu/mL): 36; Number of colonies ([2]; ATCC19637, Amphotericin B 0.1 mg, 44 hours, 10^3 cfu/mL): +; Number of colonies ([2]; ATCC19637, Amphotericin B 0.1 mg, 44 hours, 10^4 cfu/mL): +; Number of colonies ([2]; ATCC19637, Amphotericin B 0.1 mg, 44 hours, 10^5 cfu/mL): +; Number of colonies ([2]; ATCC19637, Amphotericin B 1.0 mg, 24 hours, 10^2 cfu/mL): 35; Number of colonies ([2]; ATCC19637, Amphotericin B 1.0 mg, 24 hours, 10^3 cfu/mL): +; Number of colonies ([2]; ATCC19637, Amphotericin B 1.0 mg, 24 hours, 10^4 cfu/mL): +; Number of colonies ([2]; ATCC19637, Amphotericin B 1.0 mg, 24 hours, 10^5 cfu/mL): +; Number of colonies ([2]; ATCC19637, Amphotericin B 1.0 mg, 44 hours, 10^2 cfu/mL): 35; Number of colonies ([2]; ATCC19637, Amphotericin B 1.0 mg, 44 hours, 10^3 cfu/mL): +; Number of colonies ([2]; ATCC19637, Amphotericin B 1.0 mg, 44 hours, 10^4 cfu/mL): +; Number of colonies ([2]; ATCC19637, Amphotericin B 1.0 mg, 44 hours, 10^5 cfu/mL): +; Number of colonies ([2]; ATCC19637, Amphotericin B 10 mg, 24 hours, 10^2 cfu/mL): 39; Number of colonies ([2]; ATCC19637, Amphotericin B 10 mg, 24 hours, 10^3 cfu/mL): +; Number of colonies ([2]; ATCC19637, Amphotericin B 10 mg, 24 hours, 10^4 cfu/mL): +; Number of colonies ([2]; ATCC19637, Amphotericin B 10 mg, 24 hours, 10^5 cfu/mL): +; Number of colonies ([2]; ATCC19637, Amphotericin B 10 mg, 44 hours, 10^2 cfu/mL): 39; Number of colonies ([2]; ATCC19637, Amphotericin B 10 mg, 44 hours, 10^3 cfu/mL): +; Number of colonies ([2]; ATCC19637, Amphotericin B 10 mg, 44 hours, 10^4 cfu/mL): +; Number of colonies ([2]; ATCC19637, Amphotericin B 10 mg, 44 hours, 10^5 cfu/mL): +
